In PubChem BioAssay (NCI):
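Tested at 5 concentrations; 48 h exposure; 96-well plates; endpoints linearly interpolated, else capped at highest concentration. Abbreviation: GI50, concentration required for 50% inhibition of growth. Definition used: TGI = concentration required for complete inhibition of growth.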 Where a SMILES comes first, the peptide text is derived from it. The star is where a group is joined. Boc = CC(C)(C)OC(=O)*; OSu = O=C1CCC(=O)N1O*

What was measured:
Experiment in all cases: inhibition of tumour cell growth, NCI panel, 48 h
[1] = tested on: MDA-MB-231 breast
[2] = tested on: HOP-92 NSCLC
[3] = tested on: T-47D breast
[4] = tested on: SK-OV-3 ovarian
[5] = tested on: TK-10 renal
[6] = tested on: U251 CNS
[7] = tested on: OVCAR-4 ovarian
[8] = tested on: K-562 leukemia

CCCN1C(=O)CC(C)N(Cc2ccccc2Cl)C1=S (stereo not drawn)
TGI [1]: 97 µM | TGI [2]: 69.3 µM | TGI [3]: 44.1 µM | TGI [4]: > 100 µM | TGI [5]: 67.4 µM | TGI [6]: 67.8 µM | TGI [7]: > 100 µM

CC[C@H](O)[C@H](C)C=C1SCCCS1
TGI [1]: > 100 µM | TGI [2]: > 100 µM | TGI [4]: > 100 µM | TGI [5]: > 100 µM | TGI [6]: > 100 µM | TGI [8]: > 100 µM | TGI [7]: > 100 µM

COC(=O)[C@@H]1[C@@H](c2cccc(Cl)c2)[C@H](C(=O)OC)C2(C[C@@]1(C)O)NCCS2 (stereo partly drawn)
TGI [1]: > 100 µM | TGI [2]: > 100 µM | TGI [3]: > 100 µM | TGI [4]: > 100 µM | TGI [5]: > 100 µM | TGI [6]: > 100 µM | TGI [8]: > 100 µM | TGI [7]: > 100 µM

CCOC(=O)c1ccc(Nc2c3c(nc4ccccc24)CCCC3)cc1
TGI [1]: > 100 µM | TGI [2]: > 72.6 µM | TGI [3]: > 100 µM | TGI [4]: > 100 µM | TGI [5]: > 100 µM | TGI [6]: > 100 µM | TGI [8]: > 100 µM | TGI [7]: > 100 µM

COc1ccc2nc3c([N+](=O)[O-])ccc4c3c(c2c1)NCCN4CCO
TGI [1]: 2.05 µM | TGI [2]: 1.59 µM | TGI [3]: 3.68 µM | TGI [4]: 3.58 µM | TGI [5]: 4.51 µM | TGI [6]: 1.85 µM | TGI [8]: 1.08 µM | TGI [7]: 2.39 µM

COC(=O)C1=C(C(=O)OC)C(C(=O)c2ccc(Br)cc2)N2N=C(c3ccc(Cl)cc3)C=CC12 (stereo not drawn)
TGI [1]: > 100 µM | TGI [2]: > 100 µM | TGI [4]: > 100 µM | TGI [5]: > 100 µM | TGI [6]: > 100 µM | TGI [8]: > 100 µM | TGI [7]: > 100 µM

O=C(Nc1cccc(-n2ccc3c(NC(=O)c4ccccc4)nccc32)c1)Nc1cc(C(F)(F)F)cc(C(F)(F)F)c1
GI50 [1]: 1.42 µM | TGI [1]: 4.73 µM | GI50 [2]: 0.853 µM | TGI [2]: 3.95 µM | GI50 [3]: 12.6 µM | TGI [3]: > 50 µM | GI50 [5]: 1.83 µM | TGI [5]: 32.5 µM | GI50 [6]: 1.63 µM | TGI [6]: 7.68 µM | GI50 [8]: 1.68 µM | TGI [8]: > 50 µM | GI50 [7]: 1.93 µM | TGI [7]: > 50 µM

Nn1c(COc2cccc(OCc3n[nH]c(=S)n3N)c2)n[nH]c1=S
TGI [1]: > 100 µM | TGI [2]: > 100 µM | TGI [3]: > 100 µM | TGI [4]: > 100 µM | TGI [5]: > 100 µM | TGI [6]: > 100 µM | TGI [8]: > 100 µM | TGI [7]: > 100 µM

Cc1c(Cl)nc(Nc2nc3ccccc3[nH]2)nc1Cl
TGI [2]: 18.6 µM | TGI [3]: > 100 µM | TGI [4]: > 100 µM | TGI [5]: > 100 µM | TGI [6]: > 100 µM | TGI [8]: > 100 µM | TGI [7]: 76.5 µM

O=S(=O)(O)c1cc(O)c2c(N=Cc3ccccc3O)cc(S(=O)(=O)O)cc2c1
TGI [1]: > 100 µM | TGI [2]: > 100 µM | TGI [3]: > 100 µM | TGI [4]: > 100 µM | TGI [5]: > 100 µM | TGI [6]: > 100 µM | TGI [8]: > 100 µM | TGI [7]: > 100 µM

CCCSc1ccc2[nH]c(N3C(=O)/C(=C/c4ccco4)N=C3c3ccccc3)cc2c1
TGI [2]: > 50 µM | TGI [3]: > 50 µM | TGI [8]: > 50 µM

CC(O)c1cc2c(s1)C(=O)c1sccc1C2=O (stereo not drawn)
TGI [2]: 2.06 µM | TGI [3]: 0.879 µM | TGI [4]: 4.18 µM | TGI [5]: 0.459 µM | TGI [8]: > 100 µM | TGI [7]: 0.344 µM

CC(NC(=O)C(NC(=O)OC(C)(C)C)C(C)C)C(=O)NCC(=O)ON1C(=O)CCC1=O (stereo not drawn) (Boc-Val-Ala-Gly-OSu; configuration not given here)
TGI [1]: > 100 µM | TGI [2]: > 100 µM | TGI [3]: > 100 µM | TGI [4]: > 100 µM | TGI [5]: > 100 µM | TGI [6]: > 100 µM | TGI [8]: > 100 µM

COC(=O)C(Cc1c[nH]c2ccccc12)NC(=O)C(Cc1c[nH]c2ccccc12)NC(=O)C(Cc1c[nH]c2ccccc12)NC(=O)C(Cc1c[nH]c2ccccc12)NC(=O)C(Cc1c[nH]c2ccccc12)NC(=O)C(Cc1c[nH]c2ccccc12)NC(=O)OC(C)(C)C (stereo not drawn) (Boc-WWWWWW-OMe; configuration not given here)
TGI [1]: > 100 µM | TGI [3]: > 100 µM | TGI [5]: > 100 µM | TGI [6]: > 100 µM | TGI [8]: > 100 µM | TGI [7]: > 100 µM

Cn1c(=O)c(C(=O)Nc2nc(C34CC5CC(CC(C5)C3)C4)cs2)c(O)c2ccccc21
TGI [1]: > 100 µM | TGI [2]: 65.9 µM | TGI [5]: > 100 µM | TGI [6]: > 100 µM | TGI [8]: > 100 µM | TGI [7]: > 100 µM

O=S(=O)(c1ccccc1)n1c2ccc(Br)cc2c2nc3ccccc3nc21
TGI [1]: > 100 µM | TGI [2]: > 100 µM | TGI [3]: > 100 µM | TGI [5]: > 100 µM | TGI [6]: > 100 µM | TGI [8]: > 100 µM | TGI [7]: > 100 µM

Oc1ccc(-c2nc(-c3cccnc3)c(-c3ccc(Cl)cc3)[nH]2)cc1O
TGI [1]: 47.8 µM | TGI [3]: 37.9 µM | TGI [4]: 25.5 µM | TGI [5]: 26.7 µM | TGI [6]: 26.4 µM | TGI [8]: > 100 µM | TGI [7]: 51.6 µM

COc1cc(C2c3cc4c(cc3[C@@H](Nc3ccccc3)C3COC[C@H]23)OCO4)cc(OC)c1O (stereo partly drawn)
TGI [1]: 24.5 µM | TGI [3]: > 100 µM | TGI [4]: > 100 µM | TGI [5]: > 100 µM | TGI [6]: 16.1 µM | TGI [7]: > 100 µM

CCCCC(C#N)(OP1(=O)OC(c2ccccc2)C(C)N1C)c1ccccc1 (stereo not drawn)
TGI [1]: 30.2 µM | TGI [2]: 25.8 µM | TGI [3]: 55.1 µM | TGI [4]: 43.7 µM | TGI [5]: 37.1 µM | TGI [6]: 31.4 µM | TGI [8]: 44.8 µM

Cc1cnc2sn(-c3ccc(Oc4ccccc4)cc3)c(=O)c2c1
TGI [1]: 37.6 µM | TGI [3]: 37.7 µM | TGI [4]: > 100 µM | TGI [5]: 40.1 µM | TGI [6]: 46 µM | TGI [7]: 32.9 µM

COC(=O)C1Cc2c(OC)ccc(OC)c2CC(C(=O)OC)C1=O (stereo not drawn)
TGI [1]: > 100 µM | TGI [2]: > 100 µM | TGI [3]: > 100 µM | TGI [4]: > 100 µM | TGI [6]: > 100 µM | TGI [8]: > 100 µM | TGI [7]: > 100 µM

CC(=O)N=C1N(/C=C2\C(=O)Oc3ccccc3C2=O)C(=O)/C(=C/c2ccc(OC(C)=O)cc2)N1C
TGI [1]: > 100 µM | TGI [3]: > 100 µM | TGI [4]: > 100 µM | TGI [6]: > 100 µM | TGI [8]: > 100 µM | TGI [7]: > 100 µM

C[n+]1c(-c2ccc(/C=N/NC(=N)N/N=C/c3ccc(-c4cn5cc(Cl)ccc5[n+]4C)cc3)cc2)cn2cc(Cl)ccc21
TGI [1]: > 100 µM | TGI [3]: > 100 µM | TGI [4]: > 100 µM | TGI [5]: > 100 µM | TGI [6]: > 100 µM | TGI [8]: > 100 µM | TGI [7]: > 100 µM

BrCCCCCOc1ccc(-c2c3ccccc3c(-c3ccc(OCCCCCBr)cc3)c3ccccc23)cc1
TGI [1]: > 100 µM | TGI [3]: > 100 µM | TGI [4]: > 100 µM | TGI [5]: > 100 µM | TGI [6]: > 100 µM | TGI [8]: > 100 µM | TGI [7]: > 100 µM

O=C(c1ccco1)N1CCCN(C(=O)c2ccco2)C1=S
TGI [1]: > 100 µM | TGI [3]: 93.3 µM | TGI [4]: > 100 µM | TGI [5]: > 100 µM | TGI [6]: > 100 µM | TGI [8]: > 100 µM

CCC(CON(C)c1ccccc1)(SC)SC
TGI [1]: > 100 µM | TGI [2]: > 100 µM | TGI [3]: > 100 µM | TGI [4]: > 100 µM | TGI [5]: > 100 µM | TGI [6]: > 100 µM | TGI [7]: > 100 µM
